Laboratory results from patent publication US20150266850A1 (E.I.DU PONT DE NEMOURS AND COMPANY, priority 2012, published 2015).

What was measured:
[1] = Photostability Example: aqueous photolysis under xenon arc lamp simulating natural sunlight for 24 hours, percent remaining relative to dark controls; format: physicochemical; details: 0.670 μg/mL in 80/20 10 mM pH 7 phosphate buffer/acetonitrile, xenon arc lamp 24 hours
Protocol: Aqueous photolysis data is a simple proxy for photostability under field conditions. The following aqueous photolysis data supports the enhanced photostability of the tolyl fungicides of the present invention.
Test compound (0.670 μg/mL) dissolved in 80/20 10 mM pH 7 phosphate buffer/acetonitrile is added to 2-mL borosilicate glass HPLC vials. The addition of 20% acetonitrile is intended to ensure solubility of compounds with low aqueous solubility. Samples are exposed to light in an Atlas Ci65 Burner photolysis chamber fitted with a xenon arc lamp (6500 W) to simulate natural sunlight for 24 hours and compared with samples wrapped in aluminum foil to protect them from light under the same conditions. The 24-hour irradiation is equivalent to ˜2.6 days of average Delaware summer sunlight exposure. Samples are analyzed by HPLC and results are reported as percent remaining based on peak area relative to the dark controls.

[2] = tested on: Puccinia recondita f sp. tritici; assay: Test B: wheat leaf rust, preventive spray on wheat seedlings, visual disease rating; format: in vivo; details: 192 h, 200 ppm, 100 = 100% disease control
Method in brief: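 Test suspension in acetone/water 50/50 with 250 ppm Trem® 014, sprayed to run-off on wheat seedlings at 200 ppm (≈800 g/ha), or 40 or 50 ppm where marked. Inoculated next day with spores, held 24 h saturated at 20° C, then 7 days at 20° C; disease control rated visually, 0–100 versus controls.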

[3] = tested on: Septoria tritici; assay: Test C: wheat leaf blotch, preventive spray on wheat seedlings, visual disease rating; format: in vivo; details: Zymoseptoria tritici, 504 h, 200 ppm, 100 = 100% disease control
Method in brief: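 Compounds in acetone (11% of final volume) suspended in acetone/water 50/50 with 250 ppm Trem® 014; 200 ppm (≈800 g/ha), some at 40 or 50 ppm, sprayed to run-off. Septoria tritici inoculated next day; 48 h saturated at 24° C., then 19 days at 20° C.; visual rating, 0–100% control vs untreated.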

[4] = tested on: Erysiphe graminis f. sp. tritici; assay: Test A: wheat powdery mildew, preventive spray on wheat seedlings, visual disease rating; format: in vivo; details: Blumeria graminis, 192 h, 200 ppm, 100 = 100% disease control
Method in brief: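 Wheat seedlings sprayed to run-off with compound in acetone/water with 250 ppm Trem 014 (200 ppm ≈ 800 g/ha; some at 40 or 50 ppm), inoculated next day with spore dust. After 8 days at 20° C, disease control rated visually, 0–100% relative to controls.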

[5] = tested on: Septoria nodorum; assay: Test D: wheat glume blotch, preventive spray on wheat seedlings, visual disease rating; format: in vivo; details: Parastagonospora nodorum, 216 h, 200 ppm, 100 = 100% disease control
Method in brief: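 Preventive test: wheat seedlings sprayed to run-off with compound suspension (acetone/water with 250 ppm Trem 014; 200 ppm, some at 40 or 50 ppm), inoculated with Septoria nodorum next day. Held 48 h saturated at 20° C, then 7 days at 20° C; visual rating 0-100% disease control versus controls.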

[6] = tested on: Botrytis cinerea; assay: Test E: tomato botrytis, preventive spray on tomato seedlings, visual disease rating; format: in vivo; details: Botrytis cinerea, 120 h, 200 ppm, 100 = 100% disease control
Method in brief: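 Compounds in acetone/water (50/50) with 250 ppm Trem 014, sprayed to run-off on tomato seedlings at 200 ppm (≈800 g/ha) unless marked 40 or 50 ppm. Inoculated next day with B. cinerea spores; 48 h saturated atmosphere at 20°C, then 3 days at 27°C; visual rating, 100 = full control vs controls.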

SMILES	% Cmpd Remaining [1] [%]	pest or weed control at 200 ppm [2] [%]	melting point [°C]	pest or weed control at 200 ppm [3] [%]	pest or weed control at 200 ppm [4] [%]	pest or weed control at 200 ppm [5] [%]	pest or weed control at 200 ppm [6] [%]
COC(=O)NCc1cc(-n2ccc(-c3ccc(OC)cc3C)n2)ccc1C [Compound 10, methyl N-[[5-[3-(4-methoxy-2-methylphenyl)-1H-pyrazol-1-yl]-2-methylphenyl]-methyl]carbamate]	97	100	97 to 99	100	100	100	97
COC(=O)NCc1cc(-n2ncc(-c3ccc(OC)cc3OC)n2)ccc1C [Compound 17, methyl N-[[5-[4-(2,4-dimethoxyphenyl)-2H-1,2,3-triazol-2-yl]-2-methylphenyl]methyl]carbamate]	30	100	132 to 135	100	100	100	33
